According to patent US11970478B1, “9-(2-hydroxyquinolin-3-yl)-10-(2-hydroxyethyl)-3,3,6,6-tetramethyl-3,4,6,7,9,10-hexahydroacridine1,8(2H,5H)-dione as an antimicrobial compound” (KING FAISAL UNIVERSITY, priority 2023, dated 2024):

Assays:
Details in all cases: after 10, 20, 40 and 60 minutes at all dilutions 1:100 to 1:800
St. Aereus = experiment: Antimicrobial activity by agar dilution, St. Aereus; format: cell-based, Staphylococcus aureus
Procedure: (§1) The antimicrobial properties of the synthesized compound 9-(2-hydroxyquinolin-3-yl)-10-(2-hydroxyethyl)-3,3,6,6-tetramethyl-3,4,6,7,9,10-hexahydroacridine1,8(2H,5H)-dione were studied by the method of agar dilution. Test solutions of each compound were prepared in a concentration of 1% using dimethylformamide as a solvent. Then they were diluted in a physiological solution to obtain the final experimental dilutions 1:100, 1:200, 1:400, and 1:800. The effect of these substances were compared with furacillin in a controllable study. The testing microbes used were gram positive bacteria St. Aereus, gram negative bacteria E. Coli and Ps. Aeruginosa, and Candida albicans fungi. The experiments used for this survey were meat-pentonlu agar (EPA) for cultivation of bacteria and Saburo environment for fungi. Each experiment used 1 ml of test solution on each plate 500 min. Add 2 drops of emulsified with microbes feel. All experimental samples were taken from the agar after 10, 20, 40, 60 minutes in the environment on the basis of Patrk planted. Bacteria were cultivated at a temperature of 37° C. for 1 day and the mushroom was kept in a thermostat for 2 hours at a temperature of 28° C. Then the results were checked.

E. Coli = experiment: Antimicrobial activity by agar dilution, E. Coli; format: cell-based, Escherichia coli
Procedure: as §1

Ps. Aeruginosa = experiment: Antimicrobial activity by agar dilution, Ps. Aeruginosa; format: cell-based, Pseudomonas aeruginosa
Procedure: as §1

Candida albicans = experiment: Antimicrobial activity by agar dilution, Candida albicans; format: cell-based
Procedure: as §1

Measured: inhibition activity (in words)

CC1(C)CC(=O)C2=C(C1)N(CCO)C1=C(C(=O)CC(C)(C)C1)C2c1cc2ccccc2nc1O [9-(2-hydroxyquinolin-3-yl)-10-(2-hydroxyethyl)-3,3,6,6-tetramethyl-3,4,6,7,9,10-hexahydroacridine1,8(2H,5H)-dione]
highest inhibition activity: St. Aereus | E. Coli | Ps. Aeruginosa | Candida albicans
